{"source": "patent US12514843B2", "about": "“Biofilm disruption” (QBIOTICS PTY LTD, priority 2019, dated 2026)", "system": "human adult epidermal keratinocytes (HEKa)", "assay": "Microarray gene expression in keratinocytes in vitro", "type": "cell-based", "conditions": "170 nM", "experimental": "In addition to disrupting the structure of biofilms comprising Gram-negative bacteria, effects of epoxytiglienones on regulation of genes involved in host response to bacterial infection were investigated in microarray studies with human adult epidermal keratinocytes (HEKa) and human adult dermal fibroblasts (HDF) in vitro.\nFor these studies, HEKa were cultured in EpiLife® Medium supplemented with Supplement S7 (both from Life Technologies, Carlsbad, CA, USA), while HDF were cultured in Medium 106 supplemented with LSGS (Low Serum Growth Supplement) (both from Life Technologies). Cells where then treated with vehicle or 170 nM Compound 4 for 0, 0.5, 1, 2, 4, 8, 24, 48 and 72 hours. RNA was extracted using a Qiagen RNeasy mini kit and biotinylated using an Illumina TotalPrep RNA Amplification Kit (Ambion, Austin, TX, USA). Labelled RNA was hybridised to HumanHT-12 v4 BeadChip Arrays (Illumina Inc, San Diego, CA, USA) and scanned according to standard Illumina protocols. Data were extracted in GenomeStudio (Illumina) using default analysis settings and no normalisation method. Resulting data were imported into GeneSpring GX (Agilent, Santa Clara, CA, USA. Expression values were normalised using quantile normalisation with default settings.", "data": [{"smiles": "CCCCCC(=O)OC1C(C)C2(O)C(C3OC3(CO)C(O)C3(O)C(=O)C(C)=CC32)C2C(C)(C)C12OC(=O)CCCCC", "note": "(centres unmarked) [Compound 4, 12,13-dihexanoyl-6,7-epoxy-4,5,9,12,13,20-hexahydroxy-1-tiglien-3-one]", "values": [{"measurement": "production of host defence peptides (DEFB2, DEFB3, DEFB4, RNASE7)", "setting": "from 8 to 72 hours post treatment", "result": "significantly upregulated"}, {"measurement": "expression of chemokines/cytokines involved in PMNL recruitment (IL8, CXCL1)", "setting": "within 2 to 4 hours", "result": "significant upregulation"}]}]}
